For one data set, the target named is protein kinase A (PKA) (Bos taurus, UniProt P00517). Briefly: Measurement of PKA-inhibiting activity (PKA-IC50). It is filed as biochemical. As to conditions: crude enzyme partially purified from calf heart. From the text: (2) Method for Measuring PKA-Inhibiting Activity
In a further data set the test system is protein kinase C (PKC). The data set is described as follows: Measurement of PKC-inhibiting activity (PKC-IC50). As to conditions: for IC50: read-out: PKC-IC50, crude enzyme partially purified from rat brain. On the procedure: (1) Method for Measuring PKC-Inhibiting Activity
Measurement of PKC-inhibiting activity can be carried out in a manner similar to the method of Kikkawa, et al. [Journal of Biological Chemistry, 257, 13341 (1982)].
To 250 μl of an aqueous solution comprising 2.5 μmol of magnesium acetate, 50 μg of histone Type IIIS (Sigma Chemical Co., Ltd.), 20 μg of phosphatidylserine, 0.8 μg. of diolein, 25 nmol of calcium chloride, 5 μg of a crude enzyme (partially purified from rat brain by the method of Kikkawa, et al.) and 5 μmol of Tris-HCl buffer (pH 7.5) is added the above aqueous solution containing a test compound (10 μl), followed by incubation at 30° C. for 3 minutes. After the incubation, 1.25 nmol of [γ-^32P]ATP (5–10×10^3 cpm/nmol) is added thereto, followed by phosphorylation reaction at 30° C. for 3 minutes. The reaction is terminated by addition of 25% trichloroacetic acid and the reaction mixture is filtered through a cellulose acetate membrane (pore size: 0.45 μm, Toyo Filter Co., Ltd.) After the membrane is washed four times with 5% trichloroacetic acid, the radioactivity remaining on the membrane is measured as a test compound value. Separately, the above procedure is carried out in the same manner without addition of the test compound and the radioactivity is measured as a control value.
The molar concentration of the test compound giving a test compound value which is 50% of the control value is regarded as the 50% PKC inhibition constant (PKC-IC50).

For data set [1], the system named is mouse hair follicle epithelial cells. The data set is described as follows: Cell growth-promoting effect on cultured mouse hair follicle epithelial cells (MTT). It is filed as cell-based. Here is the method:
Hair follicle epithelial cells were separated and cultured according to a modification of the method of Tanigaki, et al. [Archives of Dermatological Research, 284, 290–296 (1992)].
The skin on the back of a 4-days-old C3H mouse (Charles River Japan, Inc.) was cut off and treated with MEM (Eagle's Minimum Essential Medium) containing 500 units/ml Dispase (Godo Shusei Co., Ltd.) and 5% fetal calf serum (FCS) at 4° C. for 16 hours.
Then, the epidermis was stripped from the skin section, and the obtained dermis layer was treated with DMEM (Dulbecco's modified Eagle Medium) containing 0.25% Collagenase N-2 (Nitta Gelatin Co., Ltd.) and 10% FCS at 37° C. for one hour to obtain a dermis suspension. The dermis suspension was filtered through a 212-μm nylon mesh (Nippon Rikagaku Kikai Co., Ltd.) and the filtrate was centrifuged at 1000 rpm for 5 minutes to obtain pellets containing hair follicle tissue. To the pellets was added calcium/magnesium-free PBS (Dulbecco's Phosphate-Buffered Saline) and the pellets were suspended therein using a pipette. The resulting suspension was allowed to stand for 15 minutes to precipitate hair tissue. The same procedure as above (addition of calcium/magnesium-free PBS, suspending by use of a pipette, and precipitation by allowing suspension to stand for 15 minutes) was repeated three times using the obtained hair tissue.
Then, the hair tissue was treated with a solution containing 0.1% ethylenediaminetetraacetic acid (EDTA) and 0.25% trypsin (Gibco) at 37° C. for 5 minutes. To the resulting mixture was added DMEM containing 10% FCS to prepare a hair tissue cell suspension having a density of 3×10^5 cells/ml. The hair tissue cell suspension was put into wells of a 24-well collagen-coated plate (Iwaki Glass Co., Ltd.) in an amount of 1 ml/well, followed by culturing in 5% CO2 at 37° C. for 24 hours.
After the culturing, the medium was replaced by a medium prepared by adding to MCDB153 medium (Kyokuto Pharmaceutical Ind. Co., Ltd.) DMSO containing 5 mg/l bovine insulin (Sigma Chemical Co., Ltd.); 5 μg/l mouse epidermal growth factor (EGF) (Takara Shuzo Co., Ltd.); 40 mg/l bovine pituitary extract (Kyokuto Pharmaceutical Ind. Co., Ltd.); 10 mg/l human transferrin (Sigma Chemical Co., Ltd.); 0.4 mg/l hydrocortisone (Sigma Chemical Co., Ltd.); 0.63 μg/l progesterone (Collaborative Research Co.); 14 mg/l O-phosphoethanolamine (Sigma Chemical Co., Ltd.); 6.1 mg/l ethanolamine (Sigma Chemical Co., Ltd.); 50 U/ml penicillin (Wako Pure Chemical Industries, Ltd.); 50 μg/ml streptomycin (Wako Pure Chemical Industries, Ltd.); monooleoyl lysophosphatidic acid, dioleoyl phosphatidic acid (Sigma Chemical Co., Ltd.), didecanoyl phosphatidic acid (Sigma Chemical Co., Ltd.), dimyristoyl phosphatidic acid (Funakoshi Co., Ltd.), dipalmitoyl phosphatidic acid (Wako Pure Chemical Industries, Ltd.), dilauroyl phosphatidic acid (Funakoshi Co., Ltd.) or egg yolk-derived phosphatidic acid (Sigma Chemical Co., Ltd.); and/or proanthocyanidin, a protein kinase C-specific inhibitor or tocopherol (added in an amount of 1/100 by volume), followed by further culturing in 5% CO2 at 37° C. for 5 days. During the culturing, the medium was replaced with a fresh one every other day.
As a control, the cells were cultured in the same medium as above except that DMSO alone was added in an amount of 1/100 by volume in place of DMSO containing lysophosphatidic acid or phosphatidic acid, and/or proanthocyanidin, a protein kinase C-specific inhibitor or tocopherol.
The degree of cell growth was measured according to the method using MTT [3-(4,5-dimethylthiazol-2-yl)-2,5-diphenyl tetrazolium bromide] [Experimental Medicine (extra number), Bio Manual UP Series, Experimental Method of Cell Culture for Molecular Biological Studies, p. 89–92, Yodosha (1995)].
To each well of the 24-well microplate (2 cm^2/well) was added a PBS solution of MTT (5 mg/ml) in an amount of 1/10 by volume based on 1 ml of the culture. […]

The mark [2] stands for this setting: Table 2 (1), 30 μmol/l alone, 5 days culture.
Where [3] appears, read: Table 2 (2), 10 μmol/l alone, 5 days culture.
Where [4] appears, read: Table 2 (1), 3 μmol/l alone, 5 days culture.

The source of these data is patent US7015209B2, “Hair-growing agent” (Kyowa Hakko Kogyo Co., Ltd., priority 1999, dated 2006).

Where two headings read alike, the source gives them in different places.

As for `CCCCCCCCCCCCCCCC(=O)OC(CC(=O)[O-])C[N+](C)(C)C` (racemic) [Palmitoyl-DL-carnitine], the results for the concentration for half-maximal inhibition (IC50) at protein kinase A (PKA) and at protein kinase C (PKC) were over 1000 µM and 230 µM, respectively. In the data set on protein kinase C (PKC), this compound registered a PKA-IC50/PKC-IC50 of over 4.3.
As to `Cc1c(C)c2c(c(C)c1O)CCC(C)(CCCC(C)CCCC(C)CCCC(C)C)O2` (racemic) [dl-α-Tocopherol], the “Relative cell growth rate based on the control as 100” value (“Relative cell growth rate based” below) came out at 150 in data set [1] (setting [2]) and 199 in data set [1] (Table 2 (2), 30 μmol/l alone).
As for `CCCCCCCCCC(=O)OCC(COP(=O)(O)O)OC(=O)CCCCCCCCC` (stereo not drawn) [Didecanoyl phosphatidic acid, didecanoyl phosphatidic acid], in data set [1] (Table 2 (2), 1 μmol/l alone), the “Relative cell growth rate based” value was found to be 168.
Consider `CCCCCCCCCCCC(=O)OC[C@H](COP(=O)(O)O)OC(=O)CCCCCCCCCCC` [Dilauroyl phosphatidic acid, dilauroyl phosphatidic acid], for which the “Relative cell growth rate based” value in data set [1] (setting [3]) was found to be 379.
Regarding `CCCCCCCCCCCCCC(=O)OCC(COP(=O)(O)O)OC(=O)CCCCCCCCCCCCC` (stereo not drawn) [Dimyristoyl phosphatidic acid, dimyristoyl phosphatidic acid], in data set [1] (setting [3]), the “Relative cell growth rate based” value is 361.
For the compound `CCCCCCCC/C=C\CCCCCCCC(=O)OC[C@H](COP(=O)(O)O)OC(=O)CCCCCCC/C=C\CCCCCCCC` [Dioleoyl phosphatidic acid, dioleoyl phosphatidic acid], the “Relative cell growth rate based” value in data set [1] (setting [3]) turned out to be 255.
Turning to `CCCCCCCCCCCCCCCC(=O)OC[C@H](COP(=O)(O)O)OC(=O)CCCCCCCCCCCCCCC` [Dipalmitoyl phosphatidic acid, dipalmitoyl phosphatidic acid], in data set [1] (Table 2 (2), 20 μmol/l alone), the “Relative cell growth rate based” value was 314.
With `CCCCCCCC/C=C\CCCCCCCC(=O)OC[C@@H](O)COP(=O)(O)O` [Monooleoyl lysophosphatidic acid, monooleoyl lysophosphatidic acid], the “Relative cell growth rate based” value in data set [1] (setting [4]) is reported as 200.
On to `Oc1cc(O)c2c(c1)O[C@H](c1ccc(O)c(O)c1)[C@H](O)[C@H]2c1c(O)cc(O)c2c1O[C@H](c1ccc(O)c(O)c1)[C@H](O)C2` [Procyanidin B-2, epicatechin-(4β→8)-epicatechin], for which the “Relative cell growth rate based” value in data set [1] (setting [2]) is given as 260; in data set [1] (setting [3]), 251.
For the compound Calphostin C, the IC50 (in general, the concentration that inhibits the measured activity by half) is over 50 µM at protein kinase A (PKA) and 0.05 µM at protein kinase C (PKC). Besides, the “Relative cell growth rate based” value in data set [1] (setting [4]) came to 180; in data set [1] (Table 2 (2), 0.01 μmol/l alone), 172. For the same compound, the PKA-IC50/PKC-IC50 in the data set with protein kinase C (PKC) (ratio of PKA-IC50 to PKC-IC50) is recorded as >1000 ∥mol/l.
Polymyxin B returned an IC50 on protein kinase A (PKA) of over 1000 µM. Further, in the data set with protein kinase C (PKC), the PKA-IC50/PKC-IC50 was over 384 and the IC50 worked out at 2.6 µM.
